The record followed here is patent US10370727B2, “Point mutations in TRK inhibitor-resistant cancer and methods relating to the same” (Loxo Oncology, Inc., priority 2015, dated 2019).

SMILES strings stand for the structures.

The term IC50 denotes the concentration that gives 50% inhibition. The low end stands for higher potency, the high end for lower potency.

Holding throughout (experiment): Trk enzyme assay ([33P] incorporation into poly-EAY)
Common to all, as to assay type: biochemical

The target in one experiment is TrkB WT (Homo sapiens, UniProt Q16620). The settings on record: wild-type TrkB enzyme; 22° C., 60 minutes.
Chain of TrkB WT (Q16620 32-822): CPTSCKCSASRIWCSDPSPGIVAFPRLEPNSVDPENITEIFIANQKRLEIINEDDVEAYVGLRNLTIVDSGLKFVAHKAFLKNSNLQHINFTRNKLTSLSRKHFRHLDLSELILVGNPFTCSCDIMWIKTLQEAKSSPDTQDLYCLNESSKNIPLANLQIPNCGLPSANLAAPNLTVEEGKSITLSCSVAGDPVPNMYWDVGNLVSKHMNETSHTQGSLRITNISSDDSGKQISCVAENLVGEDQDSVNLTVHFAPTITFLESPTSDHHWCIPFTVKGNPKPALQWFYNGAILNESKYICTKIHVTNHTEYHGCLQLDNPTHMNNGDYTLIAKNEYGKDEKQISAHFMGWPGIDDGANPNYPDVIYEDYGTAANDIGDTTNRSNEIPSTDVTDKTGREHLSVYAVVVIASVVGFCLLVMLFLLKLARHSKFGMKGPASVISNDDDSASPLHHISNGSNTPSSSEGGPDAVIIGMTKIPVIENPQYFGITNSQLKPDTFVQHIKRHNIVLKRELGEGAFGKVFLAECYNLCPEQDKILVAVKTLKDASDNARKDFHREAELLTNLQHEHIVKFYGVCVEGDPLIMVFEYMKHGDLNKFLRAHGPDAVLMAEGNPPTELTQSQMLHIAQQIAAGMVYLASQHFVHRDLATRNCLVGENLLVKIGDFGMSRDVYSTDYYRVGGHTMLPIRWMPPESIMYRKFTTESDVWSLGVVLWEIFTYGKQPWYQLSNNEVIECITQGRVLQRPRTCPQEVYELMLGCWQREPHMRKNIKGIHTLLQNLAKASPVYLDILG
The target of the next experiment is TrkC G623R (Homo sapiens, UniProt Q16288, G623R/S70N). The following applies: mutant TrkC G623R enzyme; 22° C., 60 minutes.
Chain of TrkC G623R (Q16288 32-839 S70N/G623R): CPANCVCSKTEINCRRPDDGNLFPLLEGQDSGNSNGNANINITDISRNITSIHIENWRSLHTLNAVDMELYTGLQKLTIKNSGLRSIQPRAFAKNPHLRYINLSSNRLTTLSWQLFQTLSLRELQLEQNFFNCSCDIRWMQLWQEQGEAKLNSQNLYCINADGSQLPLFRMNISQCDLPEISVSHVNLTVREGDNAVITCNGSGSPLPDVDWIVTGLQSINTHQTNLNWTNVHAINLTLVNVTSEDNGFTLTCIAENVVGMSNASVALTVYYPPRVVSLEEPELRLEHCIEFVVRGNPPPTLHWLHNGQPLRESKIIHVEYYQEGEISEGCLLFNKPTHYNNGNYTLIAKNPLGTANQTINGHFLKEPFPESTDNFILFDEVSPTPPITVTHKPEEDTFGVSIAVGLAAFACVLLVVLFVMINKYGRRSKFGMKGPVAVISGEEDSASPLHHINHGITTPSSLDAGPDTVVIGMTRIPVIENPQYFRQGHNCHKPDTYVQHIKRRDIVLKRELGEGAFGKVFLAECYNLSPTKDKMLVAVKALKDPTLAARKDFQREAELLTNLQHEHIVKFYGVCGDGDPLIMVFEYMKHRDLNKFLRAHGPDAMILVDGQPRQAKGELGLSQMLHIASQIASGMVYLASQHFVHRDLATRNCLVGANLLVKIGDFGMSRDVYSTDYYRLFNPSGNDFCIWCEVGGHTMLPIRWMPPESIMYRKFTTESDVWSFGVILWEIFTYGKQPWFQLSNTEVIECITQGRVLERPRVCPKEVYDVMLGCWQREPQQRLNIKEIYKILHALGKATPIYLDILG
Another experiment addresses TrkA F589L (Homo sapiens, UniProt P04629, F589L). The settings on record: mutant TrkA F589L enzyme; 22° C., 60 minutes.
The target in a further experiment is TrkA WT (Homo sapiens, UniProt P04629). The following applies: wild-type TrkA enzyme; 22° C., 60 minutes.
Chain of TrkA WT (P04629 33-796): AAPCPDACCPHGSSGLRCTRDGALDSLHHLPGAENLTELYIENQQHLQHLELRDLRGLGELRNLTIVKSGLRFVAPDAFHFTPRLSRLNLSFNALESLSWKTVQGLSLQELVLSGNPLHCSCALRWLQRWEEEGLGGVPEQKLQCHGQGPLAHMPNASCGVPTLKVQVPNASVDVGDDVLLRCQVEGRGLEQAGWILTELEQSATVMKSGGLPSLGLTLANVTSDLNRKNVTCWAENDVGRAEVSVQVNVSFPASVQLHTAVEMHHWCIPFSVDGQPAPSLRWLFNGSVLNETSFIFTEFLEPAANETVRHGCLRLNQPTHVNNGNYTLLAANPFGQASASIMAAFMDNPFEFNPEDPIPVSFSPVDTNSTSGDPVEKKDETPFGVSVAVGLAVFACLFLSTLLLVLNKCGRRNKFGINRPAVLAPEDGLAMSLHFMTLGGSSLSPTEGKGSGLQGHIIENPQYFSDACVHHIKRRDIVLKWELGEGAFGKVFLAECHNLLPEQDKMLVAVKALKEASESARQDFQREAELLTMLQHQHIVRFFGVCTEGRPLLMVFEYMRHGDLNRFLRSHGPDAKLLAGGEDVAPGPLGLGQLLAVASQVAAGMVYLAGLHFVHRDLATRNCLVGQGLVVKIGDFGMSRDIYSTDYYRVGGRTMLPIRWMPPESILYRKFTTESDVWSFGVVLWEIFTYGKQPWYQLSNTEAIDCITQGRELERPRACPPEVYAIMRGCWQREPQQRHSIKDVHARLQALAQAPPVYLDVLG
The target of the next experiment is TrkA G595R (Homo sapiens, UniProt P04629, G595R). The settings on record: mutant TrkA G595R enzyme; 22° C., 60 minutes.
Chain of TrkA G595R (P04629 33-796 G595R): as the sequence (P04629 33-796) above, with G563R counted along it
For the next experiment, the target named is TrkA V573M (Homo sapiens, UniProt P04629, V573M). The settings on record: mutant TrkA V573M enzyme; 22° C., 60 minutes.
Chain of TrkA V573M (P04629 33-796 V573M): as the sequence (P04629 33-796) above, with V541M counted along it
The next experiment concerns the target TrkA G667C (Homo sapiens, UniProt P04629, G667C). The following applies: mutant TrkA G667C enzyme; 22° C., 60 minutes.
Another experiment deals with TrkA G667S (Homo sapiens, UniProt P04629, G667S). The following applies: mutant TrkA G667S enzyme; 22° C., 60 minutes.
Chain of TrkA G667S (P04629 33-796 G667S): as the sequence (P04629 33-796) above, with G635S counted along it
The next experiment addresses TrkC F617L (Homo sapiens, UniProt Q16288, F617L/S70N). The settings on record: mutant TrkC F617L enzyme; 22° C., 60 minutes.
Another experiment addresses TrkC WT (Homo sapiens, UniProt Q16288, S70N). The following applies: wild-type TrkC enzyme; 22° C., 60 minutes.
The next experiment deals with TrkB G623R (Homo sapiens, UniProt Q16620, G623R). The following applies: mutant TrkB G623R enzyme; 22° C., 60 minutes.
Chain of TrkB G623R (Q16620 32-822 G623R): as the sequence (Q16620 32-822) above, with G592R counted along it

Chain of TrkC F617L (Q16288 32-839 S70N/F617L): as the sequence (Q16288 32-839 S70N/G623R) above, with F586L, R592G counted along it
Chain of TrkA G667C (P04629 33-796 G667C): as the sequence (P04629 33-796) above, with G635C counted along it
Chain of TrkA F589L (P04629 33-796 F589L): as the sequence (P04629 33-796) above, with F557L counted along it
Chain of TrkC WT (Q16288 32-839 S70N): as the sequence (Q16288 32-839 S70N/G623R) above, with R592G counted along it

With `O=C(Nc1cnn2ccc(N3CCC[C@@H]3c3cccc(F)c3)nc12)N1CC(O)C1` [Compound 11, (R)-N-(5-(2-(3-fluorophenyl)pyrrolidin-1-yl)pyrazolo[1,5-a]pyrimidin-3-yl)-3-hydroxyazetidine-1-carboxamide], the IC50 was 19 nM against TrkB WT; 446 nM at TrkC G623R; 1080 nM at TrkA F589L; 6.9 nM on TrkA WT; 561 nM on TrkA G595R; 1200 nM at TrkA V573M. Also, the IC50 turned out to be 830 nM against TrkA G667C; 275 nM against TrkA G667S; 476 nM at TrkC F617L; 4.4 nM against TrkC WT; 671 nM at TrkB G623R.

Regarding `NC(=O)c1cnn2ccc(N3CCC[C@@H]3c3cc(F)ccc3F)nc12` [Compound 12, (R)-5-(2-(2,5-difluorophenyl)pyrrolidin-1-yl)pyrazolo[1,5-a]pyrimidine-3-carboxamide], the IC50 is 3.3 nM at TrkB WT; 1.6 nM against TrkC G623R; 21 nM at TrkA F589L; less than 0.5 nM against TrkA WT; 1 nM against TrkA G595R; 14.9 nM at TrkA V573M. For the same compound, the IC50 against TrkA G667C was 15.6 nM; against TrkA G667S, 3.6 nM; on TrkC F617L, 9.9 nM; at TrkC WT, less than 2.5 nM; against TrkB G623R, 1.3 nM.

On to `O=C1NC[C@@H](O)COc2ncc(F)cc2[C@H]2CCCN2c2ccn3ncc1c3n2` [Compound 17, (6R,15R)-9-fluoro-15-hydroxy-13-oxa-2,11,17,21,22,25-hexaazapentacyclo-[17.5.2.0^2,6.0^7,12.0^22,26]-hexacosa-1(25), 7,9,11,19(26),20,23-heptaen-18-one], for which the IC50 against TrkB WT was 3.6 nM; at TrkC G623R, 1.8 nM; at TrkA F589L, 2.1 nM; on TrkA WT it was less than 0.5 nM; on TrkA G595R, 1.5 nM; against TrkA V573M, less than 5 nM. The IC50 was 2.6 nM on TrkA G667C; 0.7 nM at TrkA G667S; less than 5 nM against TrkC F617L; less than 2.5 nM on TrkC WT; 1.1 nM at TrkB G623R.

Take `C[C@H]1CNC(=O)c2cnn3ccc(nc23)N2CCC[C@@H]2c2cc(F)cn(c2=O)C1` [Compound 24, (6R,13S)-9-fluoro-13-methyl-2,11,15, 19,20,23-hexaazapentacyclo [15.5.2.^17,11.0^2,6.0^20,24]pentacosa-1(23),7,9,17(24),18,21-hexaene-16,25-dione]: the IC50 at TrkB WT was 4.7 nM; on TrkC G623R it was 4.5 nM; against TrkA F589L, 86.8 nM; at TrkA WT, 0.5 nM; on TrkA G595R it was 3.3 nM; against TrkA V573M, 38.3 nM. The IC50 against TrkA G667C is 22.3 nM; against TrkA G667S, 4.7 nM; against TrkC F617L it was 61.9 nM; on TrkC WT it was less than 2.5 nM; against TrkB G623R it was 4.2 nM.

Turning to `CC1(O)CN(C(=O)Nc2cnc3ccc(N4CCC[C@@H]4c4cc(F)ccc4F)nn23)C1` [Compound 7, (R)-N-(6-(2-(2,5-difluorophenyl)pyrrolidin-1-yl)imidazo[1,2-b]pyridazin-3-yl)-3-hydroxy-3-methylazetidine-1-carboxamide], the IC50 was 7 nM against TrkB WT; 22.7 nM against TrkC G623R; 42.5 nM on TrkC F617L; less than 2.5 nM at TrkC WT; 47.9 nM against TrkB G623R.

With `CC1(NC(=O)c2cnn3ccc(N4CCC[C@@H]4c4cncc(F)c4)nc23)CC1` [Compound 15, (R)-5-(2-(5-fluoropyridin-3-yl)pyrrolidin-1-yl)-N-(1-methylcyclopropyl)pyrazolo [1,5-a]pyrimidine-3-carboxamide], the IC50 on TrkB WT is less than 2.5 nM; against TrkC G623R, 1.7 nM; against TrkA F589L it was 7.3 nM; at TrkA WT it was less than 0.5 nM; against TrkA G595R, 1.6 nM; against TrkA V573M, 6.3 nM. In addition, the IC50 at TrkA G667C was 8.1 nM; on TrkA G667S, 1.4 nM; at TrkC F617L, less than 5 nM; against TrkC WT, less than 2.5 nM; on TrkB G623R, 1.6 nM.

On to `O=C(Nc1cnn2ccc(N3CCC[C@@H]3c3cc(F)ccc3Cl)nc12)N1CC(O)C1` [Compound 9, (R)-N-(5-(2-(2-chloro-5-fluorophenyl)pyrrolidin-1-yl)pyrazolo[1,5-a]pyrimidin-3-yl)-3-hydroxyazetidine-1-carboxamide], for which the IC50 against TrkB WT is 4.6 nM; against TrkC G623R, 92.6 nM; on TrkA F589L, 90.7 nM; on TrkA WT it was 0.8 nM; on TrkA G595R, 91.9 nM; on TrkA V573M it was 106 nM. Moreover, the concentration for half-maximal inhibition (IC50) is 76.5 nM against TrkA G667C; 21.6 nM on TrkA G667S; 66.5 nM at TrkC F617L; less than 2.5 nM on TrkC WT; 104 nM on TrkB G623R.

In the case of `CONC(=O)c1cnn2ccc(N3CCC[C@@H]3c3cc(F)cnc3OC)nc12` [Compound 14, (R)-5-(2-(5-fluoro-2-methoxypyridin-3-yl)pyrrolidin-1-yl)-N-methoxy-pyrazolo[1,5-a]pyrimidine-3-carboxamide], the IC50 on TrkB WT was 4.4 nM; on TrkC G623R, 2.7 nM; on TrkA F589L, 14.8 nM; against TrkA WT, less than 0.5 nM; against TrkA G595R, 1.5 nM; against TrkA V573M, 12.1 nM. Besides, the IC50 on TrkA G667C was 9 nM; at TrkA G667S, 2.8 nM; against TrkC F617L, 12.4 nM; against TrkC WT, less than 2.5 nM; at TrkB G623R, 1.5 nM.

Turning to `CN(C)C(=O)Nc1cnc2ccc(N3CCC[C@@H]3c3cc(F)ccc3F)nn12` [Compound 2, (R)-3-(6-(2-(2,5-difluorophenyl)pyrrolidin-1-yl)imidazo[1,2-b]pyridazin-3-yl)-1,1-dimethylurea], the IC50 at TrkB WT is 4.5 nM; against TrkC G623R, 23.1 nM; against TrkC F617L it was 37.6 nM; against TrkC WT, less than 2.5 nM; against TrkB G623R it was 34.1 nM.

Turning to `O=C1NCC(F)(F)COc2ncc(F)cc2[C@H]2CCCN2c2ccn3ncc1c3n2` [Compound 23, (6R)-9,15,15-trifluoro-13-oxa-2,11,17,21, 22,25-hexaazapentacyclo [17.5.2.0^2,6.0^7,12.0^22,26]hexacosa-1(25),7,9, 11,19(26),20,23-heptaen-18-one], the IC50 is 6.1 nM against TrkB WT; 2.1 nM at TrkC G623R; less than 1 nM at TrkA F589L; 0.7 nM on TrkA WT; 1.6 nM at TrkA G595R; less than 5 nM on TrkA V573M. For the same compound, the IC50 came out at 0.8 nM on TrkA G667C; 0.3 nM against TrkA G667S; 5.8 nM against TrkC F617L; 2.7 nM against TrkC WT; 1.1 nM at TrkB G623R.

Turning to `NC(=O)Nc1cnc2ccc(N3CCC[C@@H]3c3cc(F)ccc3F)nn12` [Compound 3, (R)-1-(6-(2-(2,5-difluorophenyl)pyrrolidin-1-yl)imidazo[1,2-b]pyridazin-3-yl)urea], the IC50 was 11.9 nM against TrkB WT; 55.7 nM against TrkC G623R; 273 nM on TrkC F617L; 4.5 nM on TrkC WT; 90 nM against TrkB G623R.

Regarding `O=C(Nc1cnc2ccc(N3CCC[C@@H]3c3cc(F)ccc3F)nn12)N1CC(O)C1` [Compound 1, (R)-N-(6-(2-(2,5-difluorophenyl)pyrrolidin-1-yl)imidazo[1,2-b]pyridazin-3-yl)-3-hydroxyazetidine-1-carboxamide], the IC50 against TrkB WT was 5.7 nM; on TrkC G623R it was 29.3 nM; against TrkC F617L, 58 nM; at TrkC WT, less than 2.5 nM; at TrkB G623R, 59.7 nM.

Regarding `CN(CCO)C(=O)Nc1cnc2ccc(N3CCC[C@@H]3c3cc(F)ccc3F)nn12` [Compound 6, (R)-3-(6-(2-(2,5-difluorophenyl)pyrrolidin-1-yl)imidazo[1,2-b]pyridazin-3-yl)-1-(2-hydroxyethyl)-1-methylurea], the IC50 on TrkB WT was 5 nM; against TrkC G623R it was 24.1 nM; against TrkC F617L, 49.7 nM; against TrkC WT, less than 2.5 nM; at TrkB G623R it was 27.5 nM.

Regarding `CNC(=O)Nc1cnc2ccc(N3CCC[C@@H]3c3cc(F)ccc3F)nn12` [Compound 4, (R)-1-(6-(2-(2,5-difluorophenyl)pyrrolidin-1-yl)imidazo[1,2-b]pyridazin-3-yl)-3-methylurea], the IC50 stood at 10.6 nM at TrkB WT; 70.8 nM against TrkC G623R; 177 nM against TrkC F617L; 3.1 nM at TrkC WT; 132 nM against TrkB G623R.
